# Test results published in patent US9073858B2, “Methods of targeted drug development” (priority 2010, dated 2015).
# Where two headings read alike, the source gives them in different places.
# What was measured:
# [1] = target: T1, EGFR (Homo sapiens, UniProt P00533); experiment: EGFR in-cell Western (ICW) screening protocol; format: cell-based; design: unit not given here; settings: for ICW Screen: initial screen
# T1 construct: endogenous in cells; host or cells: A431 cells (ATCC CRL-1555)
# Procedure, shortened: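 Serum-starved cells treated with compound 4 h at 37 °C, then stimulated with EGF (20 or 0 ng/ml solution added) in its continued presence. In-cell Western on fixed cells: phospho-EGFR (800 channel) normalised to total EGFR (700 channel), % inhibition calculated against EGF-stimulated and unstimulated no-compound wells.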
# [2] = test system: epithelial carcinoma A431 cell line; experiment: MTT Cell Proliferation Assay, A431 cell line; format: cell-based; settings: for MTT-72 h A431/MDBK (ratio) / MTT (10 Point follow-up) ratio: value in brackets; for MTT-72 h A431/MDBK (ratio): numerically MDBK value over A431 value; for MTT (10 Point follow-up) ratio: numerically MDBK over A431
# Procedure, shortened: (§1)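 Cells plated overnight, then exposed 3 days at 37 °C, 5% CO2 to compound in growth medium with 0.5% FBS and 0.5% DMSO final (0.5% DMSO as control).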
# [3] = test system: MDBK line; experiment: MTT Cell Proliferation Assay, MDBK line; format: cell-based, bovine
# Procedure, shortened: as §1
# [4] = Homo sapiens, A-431, 72 h, 72 h, first value of A431/MDBK pair, read-out: MTT-72 h A431
# [5] = Bos taurus, MDBK, 72 h, second value of A431/MDBK pair, read-out: MTT-72 h MDBK
# [6] = Homo sapiens, A-431, 10 point follow-up, first value of pair, read-out: MTT (10 Point follow-up) A431
# [7] = Bos taurus, MDBK, 10 point follow-up, second value of pair, read-out: MTT (10 Point follow-up) MDBK
# [8] = 10 point follow-up, first value of pair, read-out: MTT (10 Point follow-up) A431
# [9] = 72 h, first value of A431/MDBK pair, read-out: MTT-72 h A431
# [10] = 10 point follow-up, second value of pair, read-out: MTT (10 Point follow-up) MDBK
# T1 sequence (P00533 25-1210): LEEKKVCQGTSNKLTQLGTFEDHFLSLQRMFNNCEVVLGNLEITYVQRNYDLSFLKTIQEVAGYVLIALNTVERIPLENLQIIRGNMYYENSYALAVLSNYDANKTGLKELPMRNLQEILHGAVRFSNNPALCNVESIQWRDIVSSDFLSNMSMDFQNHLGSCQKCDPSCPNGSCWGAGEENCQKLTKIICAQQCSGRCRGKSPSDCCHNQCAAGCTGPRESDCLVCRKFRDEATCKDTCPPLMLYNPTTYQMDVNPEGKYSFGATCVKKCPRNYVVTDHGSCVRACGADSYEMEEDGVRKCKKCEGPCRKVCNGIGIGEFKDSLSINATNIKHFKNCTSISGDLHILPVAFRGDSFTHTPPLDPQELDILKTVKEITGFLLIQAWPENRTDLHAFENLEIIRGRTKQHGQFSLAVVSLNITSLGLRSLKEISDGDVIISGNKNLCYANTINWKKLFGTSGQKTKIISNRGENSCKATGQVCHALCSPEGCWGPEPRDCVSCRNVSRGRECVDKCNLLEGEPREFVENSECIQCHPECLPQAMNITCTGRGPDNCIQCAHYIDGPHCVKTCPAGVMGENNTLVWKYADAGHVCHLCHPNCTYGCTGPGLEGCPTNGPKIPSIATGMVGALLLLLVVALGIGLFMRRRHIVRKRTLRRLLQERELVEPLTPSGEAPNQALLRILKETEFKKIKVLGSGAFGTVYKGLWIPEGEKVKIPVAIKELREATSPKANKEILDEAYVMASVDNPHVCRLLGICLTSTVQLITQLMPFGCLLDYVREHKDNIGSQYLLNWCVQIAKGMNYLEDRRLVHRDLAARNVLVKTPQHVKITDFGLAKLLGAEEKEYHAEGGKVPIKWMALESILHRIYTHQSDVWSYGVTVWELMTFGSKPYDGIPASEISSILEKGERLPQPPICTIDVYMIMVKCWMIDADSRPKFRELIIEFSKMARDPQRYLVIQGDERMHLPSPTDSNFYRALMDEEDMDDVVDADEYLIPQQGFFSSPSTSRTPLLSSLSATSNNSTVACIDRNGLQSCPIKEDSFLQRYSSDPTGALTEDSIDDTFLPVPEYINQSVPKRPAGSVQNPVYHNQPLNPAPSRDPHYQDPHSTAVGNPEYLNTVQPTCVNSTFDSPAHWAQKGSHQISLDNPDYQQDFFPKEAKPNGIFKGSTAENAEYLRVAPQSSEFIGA
ICW Screen [1],ICW Re-Test [1],"IC50 [2, 4]","IC50 [2, 6]","IC50 [2, 8]","IC50 [2, 9]",Compound,MTT-72 h A431/MDBK (ratio) ([2]; 72 h),"IC50 [3, 5]",MTT (10 Point follow-up) ratio ([2]; 10 point follow-up),"IC50 [3, 7]","IC50 [3, 10]","IC50 ([3]; 72 h, second value of A431/MDBK pair, read-out: MTT-72 h MDBK)","MTT-72 h % Max ([2]; 72 h, maximal effect printed after the ratio)"
38.96,30.44,5.33 µM,–,–,–,COc1ccc(C(Nc2ccccn2)c2ccc3cccnc3c2O)cc1 (centres unmarked) [compound 10524],0.95,5.09 µM,–,–,–,–,–
28.31,–,10.8 µM,–,–,–,Oc1c(C(c2ccccn2)N2CCN(Cc3ccccc3)CC2)ccc2cccnc12 (centres unmarked) [compound 10534],0.85,9.18 µM,–,–,–,–,–
44.02,52.63,2.72 µM,2.04 µM,–,–,CCN1CCN(C(c2ccc(C(F)(F)F)cc2)c2ccc3cccnc3c2O)CC1 (centres unmarked) [compound 10535],1.45,3.95 µM,1.43,2.91 µM,–,–,–
25.23,–,7.03 µM,–,–,–,OCCN1CCN(C(c2cccs2)c2ccc3cccnc3c2O)CC1 (centres unmarked) [compound 10546],0.84,5.92 µM,–,–,–,–,–
26.4,–,11.5 µM,–,–,–,CCN1CCN(C(c2cccnc2)c2cc(Cl)c3cccnc3c2O)CC1 (centres unmarked) [compound 10547],0.52,5.96 µM,–,–,–,–,–
31.03,–,9.05 µM,–,–,–,CN1CCN(C(c2ccccn2)c2ccc3cccnc3c2O)CC1 (centres unmarked) [compound 10548],0.89,8.07 µM,–,–,–,–,–
31.84,–,9.59 µM,–,–,–,CCN1CCN(C(c2cccnc2)c2ccc3cccnc3c2O)CC1 (centres unmarked) [compound 10550],0.79,7.6 µM,–,–,–,–,–
29.14,–,20.1 µM,–,–,–,CON1CCN(C(c2cccnc2)c2ccc3cccnc3c2O)CC1 (centres unmarked) [compound 10551],0.57,11.4 µM,–,–,–,–,–
57.72,43.06,3.56 µM,3.3 µM,–,–,Oc1c(C(Nc2nccs2)c2cccs2)ccc2cccnc12 (centres unmarked) [compound 10602],0.65,2.31 µM,0.71,2.35 µM,–,–,–
30.02,–,0.32 µM,0.311 µM,–,–,Cc1cccc(NC(c2ccc(C(F)(F)F)cc2)c2ccc3cccnc3c2O)n1 (centres unmarked) [compound 10628],–,0.76 µM,–,0.689 µM,–,–,–
64.09,69.21,1.92 µM,–,–,–,Cc1ccc(NC(c2ccccc2)c2ccc3cccnc3c2O)cc1 (centres unmarked) [compound 10664],1.12,2.14 µM,–,–,–,–,–
37.96,57,5.43 µM,–,–,–,CCOc1cc(C(Nc2cccnc2)c2ccc3cccnc3c2O)ccc1O (centres unmarked) [compound 10936],1.05,5.68 µM,–,–,–,–,–
40.36,24.99,25.3 µM,–,–,–,Oc1cc2cccnc2cc1C(Nc1ccccn1)c1cccs1 (centres unmarked) [compound 10938],0.88,22.1 µM,–,–,–,–,–
32.68,33.81,5.67 µM,–,–,–,Cc1ccnc(NC(c2ccccn2)c2ccc3cccnc3c2O)c1 (centres unmarked) [compound 10939],1.20,6.78 µM,–,–,–,–,–
38.28,72.45,13.6 µM,0.336 µM,–,–,COc1ccc(C(NC(=O)C2CCCCC2)c2cc([N+](=O)[O-])c3cccnc3c2O)cc1OC (centres unmarked) [compound 10940],1.21,16.6 µM,1.77,0.594 µM,–,–,57%
27.61,67.81,5.92 µM,1.12 µM,–,–,CCOc1cc(C(NC(=O)C(C)(C)C)c2cc([N+](=O)[O-])c3cccnc3c2O)ccc1O (centres unmarked) [compound 10941],1.02,6.05 µM,1.56,1.75 µM,–,–,–
56.15,95.43,33.3 µM,–,–,–,Oc1c(C(Nc2cccnc2)c2ccc(C(F)(F)F)cc2)ccc2cccnc12 (centres unmarked) [compound 10942],1.09,36.2 µM,–,–,–,–,–
44.28,68.79,1.31 µM,1.25 µM,–,–,COc1ccc(Cl)cc1C(Nc1ccccn1)c1cc(Cl)c2cccnc2c1O (centres unmarked) [compound 10943],1.60,2.1 µM,1.50,1.88 µM,–,–,–
68.22,67.75,2.03 µM,1.86 µM,–,–,Cc1ccc(C)c(C(Nc2cccnc2)c2cc(Cl)c3cccnc3c2O)c1 (centres unmarked) [compound 10944],–,2.96 µM,–,2.73 µM,–,–,–

# The remaining lines, values behind:
Compound,ICW Screen [1],ICW Re-Test [1],"IC50 [2, 4]","IC50 [2, 6]","IC50 [2, 8]","IC50 [2, 9]",MTT-72 h A431/MDBK (ratio) ([2]; 72 h),"IC50 [3, 5]",MTT (10 Point follow-up) ratio ([2]; 10 point follow-up),"IC50 [3, 7]","IC50 [3, 10]","IC50 ([3]; 72 h, second value of A431/MDBK pair, read-out: MTT-72 h MDBK)","MTT-72 h % Max ([2]; 72 h, maximal effect printed after the ratio)"
C=CCOc1cccc(C(Nc2cc(C)ccn2)c2ccc3cccnc3c2O)c1 (centres unmarked) [compound 10144],39.73,21.02,5.67 µM,–,–,–,0.93,5.29 µM,–,–,–,–,–
Oc1c(C(Nc2cccnc2)c2cccs2)ccc2cccnc12 (centres unmarked) [compound 10315],80.77,92.46,4.52 µM,0.697 µM,–,–,1.26,5.69 µM,1.12,0.783 µM,–,–,–
Oc1ccccc1C(Nc1ccccn1)c1ccc2cccnc2c1O (centres unmarked) [compound 10427],43.39,43.82,5.56 µM,–,–,–,0.87,4.82 µM,–,–,–,–,–
Cc1ccc(NC(c2ccccc2O)c2ccc3cccnc3c2O)nc1 (centres unmarked) [compound 10430],43.81,48.57,6.47 µM,–,–,–,0.86,5.58 µM,–,–,–,–,–
Oc1c(C(Nc2ccccn2)c2ccc(OC(F)F)cc2)ccc2cccnc12 (centres unmarked) [compound 10466],17.15,–,0.73 µM,0.717 µM,–,–,1.31,0.95 µM,1.08,0.775 µM,–,–,–
Cc1ccnc(NC(c2ccc(Cl)cc2)c2ccc3cccnc3c2O)c1 (centres unmarked) [compound 10481],25.82,–,–,0.798 µM,–,–,–,–,1.54,1.23 µM,–,–,–
Oc1c(C(Nc2ccccn2)c2ccccc2Cl)ccc2cccnc12 (centres unmarked) [compound 10482],16.45,–,–,0.356 µM,–,–,–,–,1.28,0.455 µM,–,–,–
Cc1cccc(NC(c2ccc(C(F)(F)F)cc2)c2ccc3cccnc3c2O)n1 (centres unmarked) [compound 10483],17.58,–,–,–,0.253 µM,0.26 µM,–,–,–,–,0.481 µM,0.49 µM,–
Oc1c(C(Nc2ccccn2)c2ccc(Cl)cc2Cl)ccc2cccnc12 (centres unmarked) [compound 10484],26.3,–,0.32 µM,–,0.305 µM,–,2.70,0.85 µM,2.12,–,0.679 µM,–,–
Cc1ccnc(NC(c2ccc(C(F)(F)F)cc2)c2ccc3cccnc3c2O)c1 (centres unmarked) [compound 10486],25.02,–,0.29 µM,0.275 µM,–,–,2.76,0.8 µM,3.07,0.844 µM,–,–,–
Cc1cccc(NC(c2ccc3c(c2)OCO3)c2ccc3cccnc3c2O)n1 (centres unmarked) [compound 10487],33.14,–,–,1.33 µM,–,5.51 µM,0.96,5.28 µM,0.72,0.963 µM,–,–,–
Cc1ccnc(NC(c2ccccc2F)c2ccc3cccnc3c2O)c1 (centres unmarked) [compound 10488],15.95,–,–,1.85 µM,–,–,–,–,1.20,2.22 µM,–,–,–
Oc1cccnc1NC(c1ccc(F)cc1)c1ccc2cccnc2c1O (centres unmarked) [compound 10509],31.55,–,1.28 µM,1.25 µM,–,–,1.60,2.05 µM,1.56,1.95 µM,–,–,–
Oc1cccnc1NC(c1ccccc1F)c1ccc2cccnc2c1O (centres unmarked) [compound 10512],12.86,–,–,0.517 µM,–,–,–,–,1.92,0.991 µM,–,–,–
COc1ccc(C(Nc2ccccn2)c2ccc3cccnc3c2O)cc1OC (centres unmarked) [compound 10518],39.93,51.72,6.52 µM,–,–,–,0.83,5.43 µM,–,–,–,–,–
Cc1ccnc(NC(c2ccc(F)cc2)c2ccc3cccnc3c2O)c1 (centres unmarked) [compound 10522],26.6,–,–,1.65 µM,–,–,–,–,1.14,1.89 µM,–,–,–
